Drawing on ChEMBL document CHEMBL1201862, “PubChem BioAssay data set” (2004), this text covers IC50, AC50 and EC50 for three compounds.

Calls of active or inactive are those of the source. Bounds are passed on as bounds.

Assay [1] addresses T1, Mannose-6-phosphate isomerase (Homo sapiens, UniProt P34949).
T1 sequence (P34949 whole entry): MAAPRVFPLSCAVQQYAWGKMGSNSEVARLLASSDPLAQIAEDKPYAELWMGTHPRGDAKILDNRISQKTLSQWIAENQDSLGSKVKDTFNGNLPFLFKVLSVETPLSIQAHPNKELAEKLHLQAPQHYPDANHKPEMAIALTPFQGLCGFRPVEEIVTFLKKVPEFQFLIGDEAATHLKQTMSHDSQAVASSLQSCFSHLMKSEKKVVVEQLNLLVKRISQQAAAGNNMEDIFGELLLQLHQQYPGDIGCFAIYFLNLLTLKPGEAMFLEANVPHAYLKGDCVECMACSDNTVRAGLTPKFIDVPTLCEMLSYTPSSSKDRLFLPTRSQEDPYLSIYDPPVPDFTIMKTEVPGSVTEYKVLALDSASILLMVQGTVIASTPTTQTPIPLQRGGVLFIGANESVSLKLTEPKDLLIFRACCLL
Nature of the assay: human PMI inhibitors, high substrate, primary screen, biochemical, fluorescence intensity, high mannose 6-phosphate (AID 1220).

In assay [2] the target is T2, Histone-lysine N-methyltransferase NSD2 (Homo sapiens, UniProt O96028).
T2 sequence (O96028 whole entry): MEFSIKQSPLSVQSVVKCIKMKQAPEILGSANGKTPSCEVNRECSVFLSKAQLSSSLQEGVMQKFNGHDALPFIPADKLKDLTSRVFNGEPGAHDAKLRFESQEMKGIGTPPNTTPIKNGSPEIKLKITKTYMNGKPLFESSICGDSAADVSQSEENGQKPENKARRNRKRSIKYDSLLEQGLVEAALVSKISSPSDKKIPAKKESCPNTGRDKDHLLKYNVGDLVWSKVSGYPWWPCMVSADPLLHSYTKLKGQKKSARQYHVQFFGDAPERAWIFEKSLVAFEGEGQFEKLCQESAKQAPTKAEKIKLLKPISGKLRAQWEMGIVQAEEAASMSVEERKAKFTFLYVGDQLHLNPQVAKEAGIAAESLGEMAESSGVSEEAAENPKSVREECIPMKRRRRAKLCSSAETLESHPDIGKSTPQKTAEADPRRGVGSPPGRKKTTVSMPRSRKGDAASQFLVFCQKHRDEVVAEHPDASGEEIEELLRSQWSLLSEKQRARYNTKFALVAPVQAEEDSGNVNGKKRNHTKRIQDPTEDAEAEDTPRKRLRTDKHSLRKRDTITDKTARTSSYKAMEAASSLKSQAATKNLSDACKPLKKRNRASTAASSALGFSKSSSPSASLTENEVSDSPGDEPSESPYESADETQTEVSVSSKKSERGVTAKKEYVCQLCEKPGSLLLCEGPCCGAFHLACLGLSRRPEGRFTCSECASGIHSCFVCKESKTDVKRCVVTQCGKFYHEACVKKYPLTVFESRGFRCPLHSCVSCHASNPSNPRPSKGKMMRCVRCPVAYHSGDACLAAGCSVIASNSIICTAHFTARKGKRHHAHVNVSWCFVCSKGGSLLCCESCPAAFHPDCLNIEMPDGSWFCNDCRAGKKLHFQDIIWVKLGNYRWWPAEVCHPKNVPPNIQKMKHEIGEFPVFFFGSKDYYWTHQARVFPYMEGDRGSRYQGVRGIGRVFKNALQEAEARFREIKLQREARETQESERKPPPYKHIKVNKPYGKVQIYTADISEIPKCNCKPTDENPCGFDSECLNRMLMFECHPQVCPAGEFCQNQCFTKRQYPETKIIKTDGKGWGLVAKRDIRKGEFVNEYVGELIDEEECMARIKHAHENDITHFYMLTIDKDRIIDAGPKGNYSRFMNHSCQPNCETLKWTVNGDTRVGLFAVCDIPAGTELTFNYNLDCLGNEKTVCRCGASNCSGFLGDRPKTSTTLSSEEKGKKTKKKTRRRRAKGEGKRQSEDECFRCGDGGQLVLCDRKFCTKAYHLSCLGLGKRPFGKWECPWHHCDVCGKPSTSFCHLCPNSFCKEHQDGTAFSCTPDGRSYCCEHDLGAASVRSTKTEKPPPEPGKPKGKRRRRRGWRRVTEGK
Type of assay: biochemical.

Another assay has as its target Phospholipase A2 (Homo sapiens, UniProt P04054). The assay is classed as functional.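 Also: confirmatory dose-response counterscreen on phospholipase A2, testing hits that came from an ultra-high-throughput screen for ATG4B inhibitors.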
A short description of assay [3]: cytotoxicity toward NIH3T3 fibroblasts, dose response, counter-screen, cell-based, ATP luminescence, mouse fibroblasts (AID 2010).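 Also: cells exposed to compound for about 90 hours before reading.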 The assay is classed as functional. For orientation: The purpose of a counterscreen is to sort out artefacts and off-target activity.
In assay [4] the target is Guanyl-specific ribonuclease T1 (Aspergillus oryzae (strain ATCC 42149 / RIB 40), UniProt P00651). The assay can be described thus: RNase T1 inhibitors, dose response, counter-screen for TPT1 inhibitor project, biochemical, fluorescence polarization, 1536-well (AID 2167).
Chain of Guanyl-specific ribonuclease T1 (P00651 whole entry): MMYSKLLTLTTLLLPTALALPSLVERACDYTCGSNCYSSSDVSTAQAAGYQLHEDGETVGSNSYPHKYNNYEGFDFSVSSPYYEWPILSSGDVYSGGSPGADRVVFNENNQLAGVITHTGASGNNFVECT
The target in the next assay is Cytochrome P450 2C19 (Homo sapiens, UniProt P33261). Nature of the assay: Cytochrome panel assay with activity outcomes. Panel member name: p450-cyp2c19 Compounds with AC50 equal or less than 10 uM are considered active. The assay is classed as functional. The conditions noted are these: read-out: AC50.
Chain of Cytochrome P450 2C19 (P33261 whole entry): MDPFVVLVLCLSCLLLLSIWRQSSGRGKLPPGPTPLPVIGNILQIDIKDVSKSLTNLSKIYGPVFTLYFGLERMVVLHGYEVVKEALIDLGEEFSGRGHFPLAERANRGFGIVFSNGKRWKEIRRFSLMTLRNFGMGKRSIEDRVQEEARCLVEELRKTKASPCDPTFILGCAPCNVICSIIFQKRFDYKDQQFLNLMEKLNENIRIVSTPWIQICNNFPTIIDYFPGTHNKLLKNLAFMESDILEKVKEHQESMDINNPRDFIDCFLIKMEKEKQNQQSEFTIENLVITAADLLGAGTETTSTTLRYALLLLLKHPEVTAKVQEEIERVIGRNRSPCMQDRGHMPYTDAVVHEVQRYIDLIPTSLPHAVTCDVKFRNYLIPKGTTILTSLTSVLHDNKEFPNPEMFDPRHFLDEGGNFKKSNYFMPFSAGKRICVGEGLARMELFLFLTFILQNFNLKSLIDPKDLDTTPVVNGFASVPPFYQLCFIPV

By IC50 is commonly meant the concentration that inhibits the measured activity by half. One may read the AC50 as the concentration giving half of the maximal activity seen. By EC50 is commonly meant the concentration giving half of the maximal effect.

Chain of Phospholipase A2 (P04054 whole entry): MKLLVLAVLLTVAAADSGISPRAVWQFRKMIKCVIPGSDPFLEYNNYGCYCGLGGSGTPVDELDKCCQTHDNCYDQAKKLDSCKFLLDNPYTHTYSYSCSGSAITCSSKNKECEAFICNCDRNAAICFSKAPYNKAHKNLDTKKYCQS

With `O=C1CCN2C=Nc3cccc4ccc1c2c34`, the IC50 in assay [1] is > 58 µM (not active). In addition, the AC50 in assay [2] is 9.91 µM (active).

As for `Oc1ccc2ccccc2c1/C=N/Nc1nnc(-c2ncc[nH]2)c2ccccc12`, on Phospholipase A2, the IC50 is 1.51 µM (active). In assay [3], the EC50 is < 6 µM (inconclusive).

With `CC(C)C(C(=O)O)N1C(=O)/C(=C/C=C/c2ccco2)SC1=S` (stereo unspecified), in assay [4], the IC50 is 9.85 µM (active). In addition, on Cytochrome P450 2C19, the AC50 is 10 µM (inconclusive).
